# Assay results reported in publication PMC9649909, “Wnt-pathway inhibitors with selective activity against triple-negative breast cancer: From thienopyrimidine to quinazoline inhibitors” (Frontiers in Pharmacology, 2022).
# Read-outs that look alike come from different tables or passages of the source.
# How the values were obtained:
# [1] = tested on: β-catenin-dependent Wnt-pathway; assay: TopFlash luciferase reporter assay, CHIR99021-stimulated, HCC1395; assay type: cell-based; settings: for TopFlash activity in words: CHIR99021; for Emax: read-out: HCC1395 TopFlash Efficacy
# Excerpt: Both stimulations abolish formation of the destruction complex, a multiprotein complex consisting of Axin, adenomatous polyposis coli (APC), glycogen synthase kinase three beta (GSK3β), and casein kinase one alpha (CK1α). Upon inactivation of the complex, β-catenin accumulates in the cytoplasm and translocates into the nucleus where it interacts with transcription factors. These downstream events are quantified by a Luciferase transcription-based readout assay (TopFlash assay).
# HCC1395 cells = assay: Cytotoxicity by Renilla luciferase under CMV promoter
# Method: (§1) The simplicity of the scaffold combined with synthetic accessibility allows building a library of compounds and performing structure activity relationship (SAR) studies of the three main parts of the molecule: the top part, the linker and the core (Figure 2).
# (§2) The synthesized compounds were used to explore SAR of three defined areas of investigation (Figure 2). All compounds were tested in the HCC1395 TNBC cell line using the GSK3β inhibitor to induce β-catenin signaling since 4a acted downstream of GSK3β (Figure 2). Both inhibition of β-catenin signaling measured by the TopFlash reporter and cytotoxicity measured by the Renilla reporter were assessed.
# (§3) The Wnt3a or CHIR99021-stimulated luciferase activity in HCC1395 TNBC cell line stably transfected with the TopFlash reporter was analyzed essentially as described for the BT-20 TNBC cell line ([Shaw et al., 2019b]; [Koval et al., 2021]). Reporter cells were seeded at 10,000 cells/well in a white opaque 384-well plate in the final volume of 20 μl of DMEM medium supplemented with 10% FCS. The cells were maintained incubated at 37°C, 5% CO2 overnight for attachment. Subsequently, they were transfected by a plasmid encoding constitutively expressed Renilla luciferase under the CMV promoter overall as described in the manufacturer’s protocol using 12 μg/ml of DNA and 40 μl/ml XtremeGENE nine reagent. The next day, the medium in each well was replaced with a 10 μl of fresh medium containing compound of interest, and, after 1 h of preincubation with the compounds, additional 10 μl of medium supplemented with Wnt3a [purified as described ([Willert et al., 2003]; [Koval and Katanaev, 2011])] or CHIR99021 were added creating respective final concentrations of 2.5 μg/ml or 5 μM of each. In case of other signal transduction reporters, no additional stimulation was performed. Compound dilutions were prepared by serial dilution in DMSO and diluted with the amount of medium necessary to obtain their final concentrations indicated on the figures and tables and maintain concentration of DMSO of 0.5% in all assay points. After overnight incubation, the supernatant in each well was removed, and the luciferase activity was measured as described ([Dyer et al., 2000]; [Huber et al., 2021]; [Pellissier et al., 2021]). The culture medium was completely removed from all wells of the plate. Finally, the luciferase activity of the firefly and Renilla luciferases was detected sequentially in individual wells of a 384-well plate through injection of corresponding measurement solutions and immediate reading (400 ms integration time) in Infinite M Plex multifunctional plate reader with injection module.
# BT-20 TNBC cell line = assay: MTT survival assay BT-20; assay type: cell-based
# Method: (§4) Indicated TNBC cell lines were detached and resuspended at 120,000 cells/ml and added into each well of a transparent 384-well plate in the final volume of 20 µl/well. The cells were maintained in DMEM containing 10% FBS at 37°C, 5% CO2 overnight. Next day, the medium in each well was replaced by 40 μl of the fresh one containing the indicated concentrations of compounds. In case of drug combination experiments, each compound dilution was delivered in corresponding well in 20 μl of medium. […] After incubation for 3–4 days, depending on the cell line, the medium in each well was replaced by 25 μl of 0.5 mg/ml Thiazolyl blue solution in 1xPBS following by incubation for 3 h at 37°C. Then the solution was removed and 25 μl DMSO was added into each well. Absorbance at 510 nm was measured in a Tecan Infinite M200 PRO plate reader.
# HCC1395 TNBC cell line = assay: MTT survival assay HCC1395; assay type: cell-based
# Method: as §4
# [2] = tested on: MDA-MB-231 TNBC cell line; assay: MTT survival assay MDA-MB-231; assay type: cell-based
# Method: as §4
# HCC1806 TNBC cell line = assay: MTT survival assay HCC1806; assay type: cell-based
# Method: as §4
# [3] = tested on: MDA-MB-468 TNBC cell line; assay: MTT survival assay MDA-MB-468; assay type: cell-based; settings: Table S2
# Method: as §4
# [4] = tested on: non-cancerous breast epithelial cell line MCF10a; assay: MTT survival assay MCF10a; assay type: cell-based; settings: for selectivity over the control cells (difference in IC50, MCF10a vs HCC1395): MTT IC50 ratio MCF10a / HCC1395
# Method: as §4
# in vitro = settings: human, HCC1395 Cytotoxicity IC50
# Method: as §1, §2, §3
# [5] = Homo sapiens, HCC1395, HCC1395, stimulation with CHIR99021 (GSK3β inhibitor)
# [6] = Homo sapiens, HCC1395, HCC1395, stimulation with CHIR99021 (GSK3β inhibitor), read-out: HCC1395 TopFlash IC50
# [7] = Homo sapiens, BT-20, Table S2, read-out: MTT BT-20 IC50
# [8] = Homo sapiens, HCC1395, Table S2, read-out: MTT HCC-1395 IC50
# [9] = Homo sapiens, MDA-MB-231, Figure 3B heatmap, read-out: IC50, μM (MDA-MB-231)
# [10] = Homo sapiens, MDA-MB-231, Table S2, read-out: MTT MDA-MB-231 IC50
# [11] = Homo sapiens, HCC1806, Table S2, read-out: MTT HCC1806 IC50
# [12] = Homo sapiens, MCF-10A, Table S2, read-out: MTT MCF10 IC50
# [13] = Homo sapiens, MCF-10A, Figure 3B heatmap, read-out: IC50, μM (MCF10)
Compound,MTT MDA-MB-231 plateau ([2]; Table S2),"Emax [1, 5] [%]","IC50 [1, 6] [µM]",IC50 (in vitro) [µM],GSK HCC1395 Renilla Comments (HCC1395 cells),IC50 (BT-20 TNBC cell line; [7]) [µM],IC50 (HCC1395 TNBC cell line; [8]) [µM],"IC50 [2, 9] [µM]","IC50 [2, 10] [µM]",IC50 (HCC1806 TNBC cell line; [11]) [µM],"IC50 ([3]; Homo sapiens, MDA-MB-468) [µM]","IC50 [4, 12] [µM]",MTT MCF10 Comments ([4]; Table S2),further results
2-chloro-N-(2-methoxybenzyl)quinazolin-4-amine [Compound 8a],53.88,–,–,–,–,–,–,–,–,–,–,–,–,"TopFlash activity in words ([1]; HCC1395): no longer active; GSK HCC1395 plateau ([1]; Table S2): 100; IC50 ([1]; Table S2, TopFlash, GSK3β inhibitor stimulation, read-out: GSK HCC1395 IC50): 42.8 µM; IC50 (HCC1395 cells; read-out: HCC1395 Cytotoxicity IC50, Renilla luciferase, HCC1395): > 100 µM; MTT BT-20 plateau (BT-20 TNBC cell line; Table S2): 100; IC50 (BT-20 TNBC cell line; Table S2, read-out: MTT BT-20 IC50): 2.96 µM; MTT HCC1395 plateau (HCC1395 TNBC cell line; Table S2): 100; IC50 (HCC1395 TNBC cell line; Table S2, read-out: MTT HCC-1395 IC50): 7.83 µM; IC50 ([2]; Table S2, read-out: MTT MDA-MB-231 IC50): 2.65 µM; MTT HCC1806 plateau (HCC1806 TNBC cell line; Table S2): 100; IC50 (HCC1806 TNBC cell line; Table S2, read-out: MTT HCC1806 IC50): 22.7 µM; IC50 [3]: 3.19 µM; MTT MDA-MB-468 plateau [3]: 69.23; selectivity over the control cells (difference in IC50, MCF10a vs HCC1395) [4]: less than 3 fold; MTT MCF10 plateau ([4]; Table S2): 100; IC50 ([4]; Table S2, read-out: MTT MCF10 IC50): 10.5 µM"
"COc1cccc(CNc2ncnc3sccc23)c1 [Compound 4c, N-(3-methoxybenzyl)thieno[2,3-d]pyrimidin-4-amine]",100,58.6 ± 22.8,4.96 ± 1.65,> 50,Non-toxic,2.89,1.08,> 10,9.37,> 50,1.61,> 50,Inactive,IC50 (HCC1395 cells; human): > 100 µM; MTT HCC1806 Comments (HCC1806 TNBC cell line; Table S2): Inactive
"c1ccc(CCCNc2ncnc3sccc23)cc1 [Compound 5h, N-(3-phenylpropyl)thieno[2,3-d]pyrimidin-4-amine]",–,–,> 50,> 50,Non-toxic,36.8,–,> 10,> 50,37.1,> 50,> 50,–,"TopFlash activity in words ([1]; HCC1395): inactive; IC50 (BT-20 TNBC cell line; Homo sapiens, BT-20, Figure 3B heatmap, no activity up to maximal tested concentration, read-out: IC50, μM (BT20)): > 50 µM; IC50 (HCC1395 TNBC cell line; Homo sapiens, HCC1395, MTT, Figure 3B heatmap and text, read-out: IC50, μM (HCC1395)): > 50 µM; IC50 (HCC1806 TNBC cell line; Homo sapiens, HCC1806, Figure 3B heatmap, read-out: IC50, μM (HCC1806)): > 10 µM; IC50 [4, 13]: > 10 µM; selectivity over the control cells (difference in IC50, MCF10a vs HCC1395) [4]: less than 3 fold"
"Clc1cccc(CNc2ncnc3sccc23)c1 [Compound 4i, N-(3-chlorobenzyl)thieno[2,3-d]pyrimidin-4-amine]",100,56.2 ± 4,8.4 ± 5.01,> 50,Non-toxic,5.24,1.74,–,18.7,2.2,1.44,> 10,Inactive,–
"COc1cccc(CNc2ncnc3ccccc23)c1 [Compound 9b, N-(3-methoxybenzyl)quinazolin-4-amine]",–,82.6 ± 13.5,–,> 50,Non-toxic,1.1,1.05,> 10,> 50,> 50,2.62,40.1,–,MTT MDA-MB-231 Comments ([2]; Table S2): Inactive; MTT HCC1806 Comments (HCC1806 TNBC cell line; Table S2): Inactive
"Clc1cccc(CCNc2ncnc3sccc23)c1 [Compound 5l, N-(3-chlorophenethyl)thieno[2,3-d]pyrimidin-4-amine]",–,77.5 ± 16.3,1.79,> 50,Non-toxic,15,6.15,> 10,> 50,38.1,37,> 50,–,"IC50 ([1]; HCC1395, stimulation with CHIR99021 (GSK3β inhibitor), read-out: HCC1395 TopFlash IC50): 3.07 ± 2.39 µM"
"Fc1ccc(CNc2ncnc3sccc23)cc1 [Compound 4g, N-(4-fluorobenzyl)thieno[2,3-d]pyrimidin-4-amine]",100,78.6 ± 29.8,4.15 ± 0.91,> 50,Non-toxic,1.63,1.96,–,25.4,2.37,1.46,> 10,Inactive,fold improvement in the activity compared to 4a ([1]; TopFlash IC50 vs 4a): 2 fold
"c1ccc(CCNc2ncnc3sccc23)cc1 [Compound 5g, N-phenethylthieno[2,3-d]pyrimidin-4-amine]",–,89,2.64 ± 1.22,> 50,Non-toxic,> 50,4.59,> 10,> 50,> 50,> 50,> 50,–,"IC50 [4, 13]: > 10 µM"
